{"source": "patent US9861689B2", "about": "“Vaccination with immuno-isolated cells producing an immunomodulator” (MaxiVAX SA, priority 2015, dated 2018)", "key": {"[1]": {"test_system": "STAT5 A/B [pTyr694/699]", "settings": "STAT5 TF-1 cell line, inhibitor mode, GM-CSF stimulation; representative value; cited from earlier work"}, "[2]": {"test_system": "STAT5 A/B [pTyr694/699]", "test": "LanthaScreen STAT5 TF-1 Activator Screen, GM-CSF Stimulation", "format": "cell-based", "settings": "cell supernatant", "procedure": "A functional cell-based assay was performed in order to determine the biological activity of the GM-CSF produced by the MVX-1 cell line. Two samples of the cell supernatant containing the produced GM-CSF were tested in duplicate using the LanthaScreen™ Cellular Assay (ThermoFisher Scientific), which uses time-resolved resonance energy transfer (TR-FRET) between a terbium-labeled phosphorylation-site specific antibody (PSSA) and a green fluorescent protein (GFP fusion of a particular kinase substrate to provide an assay readout that is ratiometric, robust, and amenable to high-throughput screening (HTS) applications. The use of a GFP fusion of the target along with a single detection antibody simplifies the assay protocol, eliminates the need for beads or additional reagents, and simplifies the assay relative to other two-antibody “sandwich” approaches.\n1. 32 μL of cells diluted in Assay Media to appropriate cell density are added to the assay plate. […]\n4. The assay plate is incubated at 37° C./5% CO2 in a humidified incubator for a pre-determined length of time (cell line/assay specific).\n5. Cells are lysed by the addition of lysis buffer with a pre-determined concentration of Tb-labeled Ab (assay specific).\n6. The assay plates are incubated in the dark at room temperature for a pre-determined length of time (assay specific).\n7. Read plate on a fluorescence plate reader. […]"}, "[3]": {"test_system": "STAT5 A/B [pTyr694/699]", "settings": "STAT5 TF-1 cell line, activator mode; representative value; cited from earlier work"}}, "data": [{"substance": "JAK Inhibitor I", "values": [{"measurement": "IC50", "setting": "[1]", "value": 37.3, "unit": "nM"}]}, {"substance": "GM-CSF produced by the MVX-1 cell line: huGM-CSF in cell supernatant of the genetically modified MVX-1 cell line", "values": [{"measurement": "results of the functional cell-based assay", "setting": "[2]; two samples in duplicate (FIGS. 7A-D)", "value": "all positive"}, {"measurement": "biological activity compared with commercially available GM-CSF", "setting": "[2]; two samples in duplicate, within the limitations of the assay", "value": "equivalent to commercially available GM-CSF"}]}, {"substance": "granulocyte macrophage-colony stimulating factor [GM-CSF]", "values": [{"measurement": "EC50", "setting": "[3]", "value": 0.003, "unit": "nM"}]}]}
